Tested on: CD1 female mouse brain lipidome
Test: Brain-region lipid levels (HPLC/MS/MS lipidomics) 2 h after single i.p. 3 mg/kg CP 55,940 vs vehicle
Format: in vivo
Design: N-arachidonoyl phenylalanine level, Mean / N-stearoyl tryptophan level, Mean / N-stearoyl proline level, Mean / N-stearoyl leucine level, Mean / N-stearoyl phenylalanine level, Mean / N-stearoyl serine level, Mean / N-stearoyl methionine level, Mean: unit: moles per gram
Procedure: The Bloomington Institutional Animal Care and Use Committee of Indiana University reviewed and approved the animal procedures. Female mice from the CD1 strain were utilized to match our study examining THC’s effects on the brain lipidome ([Leishman et al., 2018]). Mice were given a single i.p. injection of either 3 mg/kg CP or 1:1:18 cremophor:ethanol:saline vehicle (please refer to the section “3 mg/kg CP Is Relevant for Synthetic Cannabinoid Abuse and Has Stronger Effects on the Female Mouse Brain Lipidome During Adolescence” for a justification of dose and use of female mice). Three different age groups were given injections: PND 35 and PND 50 adolescents, and adult mice (PND 113). At least eight mice in each age group received CP and at least eight received vehicle. Matching the THC study time course ([Leishman et al., 2018]), mice were sacrificed via rapid decapitation 2 h after injection. Brains were immediately removed and flash-frozen in liquid nitrogen, and then stored at -80°C until dissections were performed. Brains were dissected on an ice-cold dissection plate into the following regions: STR, HIPP, CER, THAL, CTX, HYP, MID, and STEM. These abbreviations for these brain areas will be used exclusively when discussing the results generated by these specific dissections. Each dissected area was immediately placed in liquid nitrogen and then stored at -80°C until used for lipid extraction.
Tissue extracts were performed as previously described ([Bradshaw et al., 2006]; [Stuart et al., 2013]; [Raboune et al., 2014]; [Leishman et al., 2016a],[b], [2017], [2018]). First, samples were shock frozen in liquid nitrogen, weighed, and transferred to a centrifuge tube. The mass of the largest sample was multiplied by 50 to determine how many milliliters of HPLC-grade methanol (Fisher, Fair Lawn, NJ, United States) to add. Then, samples were spiked with 500 pmol deuterium-labeled NAGly (d8NAGly; Cayman Chemical, Ann Arbor, MI, United States). Samples were placed on ice in darkness for 2 h then individually homogenized and centrifuged at 19,000 × g for 20 min at 20°C. Supernatants were diluted with HPLC water (purified in house) to make a solution of 75% water, 25% supernatant. Lipids were partially purified on C18 solid phase extraction columns (Agilent, Palo Alto, CA, United States). A series of four elutions with 1.5 mL of 60%, 75%, 85%, and 100% methanol were collected ([Stuart et al., 2013]; [Leishman et al., 2016a],[b], [2018]).
As previously described ([Bradshaw et al., 2006]; [Tan et al., 2006]; [Smoum et al., 2010]; [Stuart et al., 2013]; [Tortoriello et al., 2013]; [Raboune et al., 2014]; [Leishman et al., 2016a],[b], [2017], [2018]), samples were analyzed using an Applied Biosystems API 3000 triple quadrupole mass spectrometer with electrospray ionization (Foster City, CA, United States). Using an Agilent XDB-C18 reversed phase analytical column and optimized mobile phase gradients, 20 μL from each elution were chromatographed. Two Shimadzu 10ADvp pumps (Columbia, MD, United States) provided the pressure for gradient elution. Mobile phase A: 20% methanol, 80% water (v/v) and 1 mM ammonium acetate (Sigma, St. Louis, MO, United States). Mobile phase B: 100% methanol, 1 mM ammonium acetate. Every method run began with 0% mobile phase B, reached 100% mobile phase B flowing at 0.2 mL/min, and gradually returned to 0% mobile phase B.
This screening library will be referred to as the lipidome when discussing data from this study. HPLC/MS/MS data were analyzed using Analyst software (Applied Biosystems) ([Bradshaw et al., 2006]; [Tan et al., 2006]; [Stuart et al., 2013]; [Tortoriello et al., 2013]; [Raboune et al., 2014]; [Leishman et al., 2016a],[b], [2017], [2018]). Chromatograms (Supplementary Figure 3) were generated by determining the retention time of analytes from the analytical column with a [M-1] or [M+1] parent peak and a fragmentation peak corresponding to the programmed values. […]

[1] = hippocampus, PND 35 WT female mice, 3mg/kg CP 55,940
[2] = hypothalamus, PND 50, 3mg/kg CP 55,940
[3] = hypothalamus, PND 50 female mice, 3mg/kg CP 55,940

## CCCCCCC(C)(C)c1ccc([C@@H]2C[C@H](O)CC[C@H]2CCCO)c(O)c1 [CP 55,940]
[1]
  N-arachidonoyl tryptophan level, Mean: BDL
  N-arachidonoyl tyrosine level, Mean: 7.88E-13
  N-docosahexaenoyl GABA level, Mean: 9.2E-13
  N-docosahexaenoyl alanine level, Mean: 5.16E-12
  N-docosahexaenoyl ethanolamine level, Mean: 3.15E-11
  N-docosahexaenoyl glycine level, Mean: 1.89E-11
  N-docosahexaenoyl leucine level, Mean: 7.64E-13
  N-docosahexaenoyl methionine level, Mean: BDL
  N-docosahexaenoyl phenylalanine level, Mean: 1.25E-12
  N-docosahexaenoyl proline level, Mean: BDL
  N-docosahexaenoyl serine level, Mean: 2.42E-11
  N-docosahexaenoyl tryptophan level, Mean: BDL
  N-docosahexaenoyl tyrosine level, Mean: PISSR
  N-docosahexaenoyl valine level, Mean: PISSR
  N-linoleoyl GABA level, Mean: 4.99E-13
  N-linoleoyl alanine level, Mean: 2.58E-12
  N-linoleoyl ethanolamine level, Mean: 6.76E-11
  N-linoleoyl glycine level, Mean: 5.29E-12
  N-linoleoyl leucine level, Mean: 3.89E-13
  N-linoleoyl methionine level, Mean: BDL
  N-linoleoyl phenylalanine level, Mean: 2.51E-13
  N-linoleoyl proline level, Mean: BDL
  N-linoleoyl serine level, Mean: 8.04E-11
  N-linoleoyl tryptophan level, Mean: BDL
  N-linoleoyl tyrosine level, Mean: PISSR
  N-linoleoyl valine level, Mean: PISSR
  N-nervonoyl valine level, Mean: BDL
  N-oleoyl GABA level, Mean: 2.89E-12
  N-oleoyl alanine level, Mean: 1.01E-11
  N-oleoyl dopamine level, Mean: BDL
  N-oleoyl ethanolamine level, Mean: 1.48E-10
  N-oleoyl glycine level, Mean: 2.1E-11
  N-oleoyl leucine level, Mean: 1.71E-12
  N-oleoyl methionine level, Mean: 8.45E-13
  N-oleoyl phenylalanine level, Mean: 1.23E-12
  N-oleoyl proline level, Mean: PISSR
  N-oleoyl serine level, Mean: 3.91E-10
  N-oleoyl tryptophan level, Mean: PISSR
  N-oleoyl tyrosine level, Mean: 3.7E-13
  N-oleoyl valine level, Mean: 7.17E-13
  N-palmitoyl GABA level, Mean: 5.66E-12
  N-palmitoyl alanine level, Mean: 1.96E-11
  N-palmitoyl ethanolamine level, Mean: 6.04E-11
  N-palmitoyl glycine level, Mean: 4.65E-11
  N-palmitoyl leucine level, Mean: 4.19E-12
  N-palmitoyl methionine level, Mean: PISSR
  N-palmitoyl phenylalanine level, Mean: 2.85E-12
  N-palmitoyl proline level, Mean: 1.75E-12
  N-palmitoyl serine level, Mean: 7.46E-11
  N-palmitoyl tryptophan level, Mean: 4.02E-13
  N-palmitoyl tyrosine level, Mean: 1.11E-12
  N-palmitoyl valine level, Mean: 1.58E-12
  N-stearoyl GABA level, Mean: 5.59E-12
  N-stearoyl alanine level, Mean: 1.75E-11
  N-stearoyl ethanolamine level, Mean: 1.72E-11
  N-stearoyl glycine level, Mean: 2.5E-11
  N-stearoyl leucine level, Mean: 1.77E-12
  N-stearoyl methionine level, Mean: 1.74E-12
  N-stearoyl phenylalanine level, Mean: 2.56E-12
  N-stearoyl serine level, Mean: 3.13E-11
  N-stearoyl tryptophan level, Mean: 1.25E-12
  N-stearoyl tyrosine level, Mean: 1.27E-13
  Oleic acid level, Mean: 2.69E-09
  PGE2 level, Mean: 1.12E-09
  PhosphoLEA level, Mean: 2.75E-11
  THC level, Mean: BDL
[2]
  2-arachidonoyl glycerol, Direction (relative to Veh): ↓
  N-arachidonoyl phenylalanine, Direction (relative to Veh): ↓
  N-palmitoyl leucine, Direction (relative to Veh): ↑
  PGF2α Direction (relative to Veh): ↑
hypothalamus, PND 50, 3mg/kg CP 55,940, ANOVA p .005
  PGF2α Magnitude (x Veh level): 1.49 x Veh level
hypothalamus, PND 50, 3mg/kg CP 55,940, ANOVA p .013
  N-arachidonoyl phenylalanine, Magnitude (x Veh level): 0.70 x Veh level
hypothalamus, PND 50, 3mg/kg CP 55,940, ANOVA p .022
  N-palmitoyl leucine, Magnitude (x Veh level): 1.34 x Veh level
hypothalamus, PND 50, 3mg/kg CP 55,940, ANOVA p .033
  2-arachidonoyl glycerol, Magnitude (x Veh level): 0.80 x Veh level
[3]
  2-arachidonoyl glycerol level, Mean: 2.57E-10
  2-linoleoyl glycerol level, Mean: 1E-10
  2-oleoyl glycerol level, Mean: 1.24E-09
  2-palmitoyl glycerol level, Mean: 2.63E-09
  6-ketoPGF1α level, Mean: 1.26E-11
  11-OH-THC level, Mean: BDL
  11-nor-9-carboxyTHC level, Mean: BDL
  Arachidonic acid level, Mean: 1.92E-10
  Cannabidiol level, Mean: BDL
  Linoleic acid level, Mean: 1.86E-10
  N- stearoyl valine level, Mean: PISSR
  N-arachidonoyl GABA level, Mean: 6.6E-12
  N-arachidonoyl alanine level, Mean: PISSR
  N-arachidonoyl dopamine level, Mean: BDL
  N-arachidonoyl ethanolamine level, Mean: 2.54E-11
  N-arachidonoyl glycine level, Mean: 4.44E-13
  N-arachidonoyl methionine level, Mean: BDL
  N-arachidonoyl phenylalanine level, Mean: 3.4E-13
  N-arachidonoyl proline level, Mean: BDL
  N-arachidonoyl serine level, Mean: PISSR
  N-arachidonoyl taurine level, Mean: 6.54E-12
  N-arachidonoyl tryptophan level, Mean: BDL
  N-arachidonoyl tyrosine level, Mean: BDL
  N-docosahexaenoyl GABA level, Mean: PISSR
  N-docosahexaenoyl alanine level, Mean: PISSR
  N-docosahexaenoyl ethanolamine level, Mean: 3.64E-11
  N-docosahexaenoyl glycine level, Mean: 1.54E-13
  N-docosahexaenoyl leucine level, Mean: PISSR

— PMC6277767, “Broad and Region-Specific Impacts of the Synthetic Cannabinoid CP 55,940 in Adolescent and Adult Female Mouse Brains” (Frontiers in Molecular Neuroscience, 2018)
